We go through 14 compounds from patent US11318136B2, “Identification of granins as the pathogenic factor of alzheimer's disease and compositions and methods for inhibiting granin aggregation and treating alzheimer's disease” (priority 2018, dated 2022).

In one assay the target is T1, chromogranin A (CGA) (Bos taurus, UniProt P05059).
T1 construct: from tissue; host or cells: secretory granules of bovine adrenal medulla
T1 sequence (P05059 19-449): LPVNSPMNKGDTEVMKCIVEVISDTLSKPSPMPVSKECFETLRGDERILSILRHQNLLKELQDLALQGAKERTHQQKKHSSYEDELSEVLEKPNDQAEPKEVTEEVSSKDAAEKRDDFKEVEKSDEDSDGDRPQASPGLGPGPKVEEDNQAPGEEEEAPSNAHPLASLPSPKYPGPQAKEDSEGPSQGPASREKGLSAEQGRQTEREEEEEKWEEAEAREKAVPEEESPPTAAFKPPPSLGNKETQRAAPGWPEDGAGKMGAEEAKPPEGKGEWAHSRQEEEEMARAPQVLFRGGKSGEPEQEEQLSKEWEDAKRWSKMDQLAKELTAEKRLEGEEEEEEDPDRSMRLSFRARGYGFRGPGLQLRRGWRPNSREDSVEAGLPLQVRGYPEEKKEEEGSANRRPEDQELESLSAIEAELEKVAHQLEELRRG
The experiment in a line: Metal-induced chromogranin A aggregation (turbidity). In kind it is biochemical, bovine. Conditions: 1 μM compound, pH 7.4; for Fe2+-induced chromogranin A aggregation / Cu2+-induced chromogranin A aggregation: chromogranin A 0.005 mg/ml (0.1 μM); for Zn2+-induced chromogranin A aggregation: chromogranin A 0.005 mg/ml. From the text:
(§1) Materials: The major granin proteins, chromogranin A (CGA), chromogranin B (CGB), and secretogranin II (SgII) were purified from secretory granules of bovine adrenal medulla as described (Park et al., 2002; Yoo, 1995; Yoo and Albanesi, 1990). Chelex 100 was from Bio-Rad (U.S.A), and other chemicals were of highest purity that is commercially available. Purified native chromogranin B (c), secretogranin II (d), and chromogranin A (b) are illustrated in FIG. 4. The flavonoids, stilbenoids, and the other test compounds used in the present experiments were obtained from MedChem Express (U.S.A.), Sigma-Aldrich (U.S.A.), and Santa-Cruz Biotech. (U.S.A.), and the purity of all the compounds tested was 98% or higher.
(§2) Aggregation Experiments: Prior to aggregation studies, it is necessary to remove metal ions that had interacted with granins during purification process from granins through extensive treatments with chelating agents such as Chelex 100 (Bio-Rad, U.S.A) to dissociate the granin aggregates. For metal-induced aggregation studies, Chelex 100-treated CGA, CGB, or SgII in 2 mM MOPS, pH 7.4, was titrated with concentrated metal ions such as CuCl2, FeCl2, and ZnCl2. Aggregation was monitored by measuring the turbidity change with a Beckman DU640 uv/vis spectrophotometer. All the measurements were done at 24° C.
(§3) Materials: The major granin proteins, chromogranin A (CGA), chromogranin B (CGB), and secretogranin II (SgII) were purified from secretory granules of bovine adrenal medulla as described (Park et al., 2002; Yoo, 1995; Yoo and Albanesi, 1990). Chelex 100 was from Bio-Rad, and other chemicals were of highest purity that is commercially available.
(§4) Aggregation Experiments: Prior to aggregation studies, it is necessary to remove metal ions that had interacted with granins during purification process from granins through extensive treatments with chelating agents such as Chelex 100 to dissociate the granin aggregates. For metal-induced aggregation studies, Chelex 100-treated CGA, CGB, or SgII in 2 mM MOPS, pH 7.4, was titrated with concentrated metal ions such as CuCl2, FeCl2, and ZnCl2. Aggregation was monitored by measuring the turbidity change with a Beckman spectrophotometer. All the measurements were done at 24° C.

A further assay deals with T2, chromogranin B (CGB) (Bos taurus, UniProt P23389).
T2 construct: from tissue; host or cells: secretory granules of bovine adrenal medulla
T2 sequence (P23389 21-646): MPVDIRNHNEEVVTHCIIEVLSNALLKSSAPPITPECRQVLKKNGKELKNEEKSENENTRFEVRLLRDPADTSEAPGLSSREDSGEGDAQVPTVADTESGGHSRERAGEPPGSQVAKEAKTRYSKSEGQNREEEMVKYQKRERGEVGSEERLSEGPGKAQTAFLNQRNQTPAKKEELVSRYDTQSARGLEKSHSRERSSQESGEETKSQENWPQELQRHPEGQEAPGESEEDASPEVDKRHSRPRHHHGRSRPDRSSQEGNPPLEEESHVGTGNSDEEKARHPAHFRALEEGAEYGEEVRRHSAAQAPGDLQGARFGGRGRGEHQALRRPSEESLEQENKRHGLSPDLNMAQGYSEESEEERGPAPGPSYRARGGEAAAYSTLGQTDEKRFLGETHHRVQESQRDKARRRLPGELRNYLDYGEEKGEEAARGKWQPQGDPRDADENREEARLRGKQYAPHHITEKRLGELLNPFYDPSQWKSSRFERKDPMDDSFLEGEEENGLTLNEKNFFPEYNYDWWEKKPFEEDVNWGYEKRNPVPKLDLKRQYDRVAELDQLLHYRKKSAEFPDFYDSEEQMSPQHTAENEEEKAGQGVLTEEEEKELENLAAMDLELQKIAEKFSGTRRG
The assay can be described thus: Metal-induced chromogranin B aggregation (turbidity). In kind it is biochemical, bovine. Conditions: 1 μM compound, pH 7.4; for Cu2+-induced chromogranin B aggregation / Fe2+-induced chromogranin B aggregation: chromogranin B 0.005 mg/ml (0.06 μM).
Source text: as §1, §2, §3, §4

Another assay has as its target T3, secretogranin II (SgII) (Bos taurus, UniProt P20616).
T3 construct: from tissue; host or cells: secretory granules of bovine adrenal medulla
T3 sequence (P20616 31-613): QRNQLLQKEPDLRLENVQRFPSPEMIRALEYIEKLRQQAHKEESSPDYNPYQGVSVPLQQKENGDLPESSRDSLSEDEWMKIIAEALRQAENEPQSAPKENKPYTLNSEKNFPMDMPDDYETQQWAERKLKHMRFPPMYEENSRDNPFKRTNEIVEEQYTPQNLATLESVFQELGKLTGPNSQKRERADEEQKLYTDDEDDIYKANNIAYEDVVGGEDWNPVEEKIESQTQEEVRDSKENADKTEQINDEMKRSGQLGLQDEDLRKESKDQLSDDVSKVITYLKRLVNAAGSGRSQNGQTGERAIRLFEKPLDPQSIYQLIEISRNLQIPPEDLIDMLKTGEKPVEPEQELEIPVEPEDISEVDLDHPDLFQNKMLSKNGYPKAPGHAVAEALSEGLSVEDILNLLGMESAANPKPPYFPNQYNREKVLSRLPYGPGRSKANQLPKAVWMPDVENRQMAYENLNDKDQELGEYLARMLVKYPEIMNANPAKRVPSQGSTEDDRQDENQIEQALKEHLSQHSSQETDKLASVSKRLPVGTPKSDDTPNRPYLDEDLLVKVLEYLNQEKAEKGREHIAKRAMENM
The assay can be described thus: Metal-induced secretogranin II aggregation (turbidity). In kind it is biochemical, bovine. The following applies: 1 μM compound, pH 7.4.
Source text: as §1, §2, §3, §4

The target of a further assay is T4, chromogranin B (Bos taurus, UniProt P23389).
T4 construct: from tissue; host or cells: secretory granules of bovine adrenal medulla
T4 sequence (P23389 21-646): T2 sequence (P23389 21-646)
The assay can be described thus: Dynamic light scattering, hydrodynamic state of chromogranin B. In kind it is biochemical, bovine. Conditions: chromogranin B 0.5 mg/ml (6 μM); 0.2 mM compound; 0.2 mM Fe2+; pH 7.4. On the procedure:
Molecular dynamic light scattering: To determine whether granins are in a monomer-to-oligomer state or in high molecular weight aggregate states in different solution conditions, dynamic light scattering experiments of granins were carried out with a DynaPro NanoStar of Wyatt Technology (Santa Barbara, Calif.) at 24° C., and the results were analyzed by a program (Dynamics 7.5.0) provided by the company.

The subject of another assay is PC12 cells. The assay can be described thus: MTT cell toxicity assay, granin plus Cu2+ toxicity. The following applies: 0.1 μM chromogranin A, 0.06 μM chromogranin B, 0.07 μM secretogranin II, 20 μM Cu2+, 1 μM compound. In kind it is cell-based.
Setting [1] is: secretogranin II 0.005 mg/ml (0.07 μM).

Source text for PC12 cells: MTT cell toxicity assay: Cell toxicity assays were done using MTT cell proliferation assay kits from Invitrogen (U.S.A.) and 50,000 PC12 cells/well as described (Cheruvara et al., 2015; Shearman et al., 1994). The assays are designed to detect the level of MTT dye reduction by cells, and the resulting color changes at 570 nm are used as an indicator of cell viability (health). The healthier the cells the higher the color changes.

`COc1cc(OC)c2c(=O)cc(-c3ccccc3)oc2c1` [5,7-dimethoxyflavone]: on chromogranin A (CGA), the “Fe2+-induced chromogranin A aggregation” value is given as “completely suppressed” and the “Zn2+-induced chromogranin A aggregation” value is “mostly suppressed”.
On to `O=c1cc(-c2ccc(O)cc2)oc2cc(O)cc(O)c12` [apigenin], for which the “Cu2+-induced chromogranin A aggregation” value on chromogranin A (CGA) is “completely suppressed”. In addition, at chromogranin B (CGB) (chromogranin B 0.005 mg/ml), the “Zn2+-induced chromogranin B aggregation” value is “mostly suppressed”.
Turning to `O=c1cc(-c2ccccc2)oc2cc(O)c(O)c(O)c12` [baicalein], the “Cu2+-induced chromogranin B aggregation” value on chromogranin B (CGB) is “mostly suppressed”. Further, the “Fe2+-induced secretogranin II aggregation” value at secretogranin II (SgII) (secretogranin II 0.01 mg/ml (0.14 μM)) is “completely suppressed”. On chromogranin B, the “chromogranin B in large aggregate state” value is reported as 5.3% and the “chromogranin B remaining in low molecular weight oligomer state” value turned out to be 94.7%.
For the compound `Nc1ncnc2c1ncn2[C@@H]1O[C@H](CO)C[C@H]1O` [cordycepin], on chromogranin A (CGA), the “Cu2+-induced chromogranin A aggregation” value is listed as “mostly suppressed”. The “Fe2+-induced secretogranin II aggregation” value at secretogranin II (SgII) (setting [1]) is listed as “significantly suppressed”.
Take `O=c1c(O)c(-c2ccc(O)c(O)c2)oc2cc(O)ccc12` [fisetin]: at chromogranin A (CGA), the “Fe2+-induced chromogranin A aggregation” value is recorded as “completely suppressed”. Further, the “Fe2+-induced secretogranin II aggregation” value on secretogranin II (SgII) (setting [1]) is “completely suppressed”.
Consider `O=c1c(O)c(-c2ccc(O)cc2)oc2cc(O)cc(O)c12` [kaempferol], for which the “Fe2+-induced chromogranin A aggregation” value at chromogranin A (CGA) is recorded as “completely suppressed”. Moreover, on secretogranin II (SgII) (setting [1]), the “Cu2+-induced secretogranin II aggregation” value is “mostly suppressed”.
`O=c1cc(-c2ccc(O)c(O)c2)oc2cc(O)cc(O)c12` [luteolin]: the “Fe2+-induced chromogranin B aggregation” value at chromogranin B (CGB) is on record as “mostly inhibited”. For the same compound, the “Fe2+-induced secretogranin II aggregation” value at secretogranin II (SgII) (setting [1]) is on record as “mostly inhibited”. Also, the “granin-induced toxicity (cell toxicity, MTT)” value with PC12 cells is listed as “virtually stopped”.
Consider `O=c1c(O)c(-c2ccc(O)cc2O)oc2cc(O)cc(O)c12` [morin], for which, on chromogranin A (CGA), the “Fe2+-induced chromogranin A aggregation” value was “completely suppressed” and the “Zn2+-induced chromogranin A aggregation” value is given as “mostly suppressed”.
With `O=c1c(O)c(-c2cc(O)c(O)c(O)c2)oc2cc(O)cc(O)c12` [myricetin], the “Fe2+-induced chromogranin A aggregation” value on chromogranin A (CGA) is reported as “completely suppressed”. Moreover, the “Fe2+-induced chromogranin B aggregation” value at chromogranin B (CGB) is listed as “completely suppressed”.
Consider `O=c1c(O)c(-c2ccc(O)c(O)c2)oc2cc(O)cc(O)c12` [quercetin], for which, at chromogranin B (CGB), the “Cu2+-induced chromogranin B aggregation” value was “completely suppressed”. For the same compound, the “Fe2+-induced secretogranin II aggregation” value at secretogranin II (SgII) (setting [1]) was “completely suppressed”.
Regarding `Oc1ccc(C=Cc2cc(O)cc(O)c2)cc1` [resveratrol], at chromogranin B (CGB), the “Fe2+-induced chromogranin B aggregation” value is “mostly suppressed”. At secretogranin II (SgII) (setting [1]), the “Zn2+-induced secretogranin II aggregation” value was “significantly suppressed”.
For `COc1ccc(-c2cc(=O)c3c(OC)c(OC)c(OC)c(OC)c3o2)cc1` [tangeretin], on chromogranin A (CGA), the “Cu2+-induced chromogranin A aggregation” value is reported as “mostly suppressed”. In addition, on chromogranin B (CGB), the “Fe2+-induced chromogranin B aggregation” value is reported as “completely suppressed”.
As to `COc1cc2ncnc(Nc3cccc(Cl)c3)c2cc1OC` [tyrphostin AG1478], the “Fe2+-induced chromogranin A aggregation” value at chromogranin A (CGA) is on record as “significantly suppressed”. For the same compound, at secretogranin II (SgII) (setting [1]), the “Fe2+-induced secretogranin II aggregation” value is “significantly suppressed”.
As for epigallocatechin 3-gallate [EGCG], at secretogranin II (SgII) (setting [1]), the “Cu2+-induced secretogranin II aggregation” value is recorded as “mostly suppressed” and the “Fe2+-induced secretogranin II aggregation” value is “completely suppressed”.
